The test system of the test is IL-5 production. Put plainly: In vitro inhibition of IL-5 production in human blood (phytohemagglutinin-stimulated whole blood, ELISA).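 Further: values marked with an asterisk were tested at 10 µM and unmarked values at 1 µM.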 Format: cell-based. The conditions noted are these: test dose 1×10^−6 M, 48 hours. The method, then:
In Vitro Inhibition of IL-5 Production in Human Blood
Human Whole Blood Stimulation
Peripheral blood from healthy male donors was drawn into heparinized syringes (12.5 U heparin/ml). Blood samples were three-fold diluted in RMPI 1640 medium (Life Technologies, Belgium) supplemented with 2 mM L-glutamine, 100 U/ml penicillin and 100 μg/ml streptomycin, and 300 μl fractions were distributed in 24-well multidisc plates. Blood samples were preincubated (60 minutes at 37° C.) in a humidified 6% CO2-atmosphere with 100 μl of drug solvent (final concentration 0.02% dimethylsulfoxide in RPMI 1640) or with 100 μl of an appropriate dose of test compound before being stimulated by the addition of 100 μl of phytohemagglutinin HA17 (Murex, UK) at a final concentration of 2 μg/ml. After 48 hours, cell-free supernatant fluids were collected by centrifugation and stored at −70° C. until tested for the presence of IL-5.
IL-5 measurements were conducted as described in Van Wauwe et al. (1996, Inflamm Res, 45, 357-363) on page 358 using ELISA.
Table 9 lists the percentage inhibition of IL-5 production (column “% inh”) at a test dose of 1×10^−6 M, or in case the percentage inhibition is marked with an “*” 1×10^−5 M, the compounds of the present invention.
Turning to `Cc1nc(C(c2ccc(Cl)cc2)c2c(Cl)cc(-n3ncc(=O)[nH]c3=O)cc2Cl)sc1-c1ccccc1` (racemic) [Comp 248], the “% inh. (percentage inhibition of IL-5 production)” value was 91%.
`O=c1cnn(-c2cc(Cl)c(C(c3ccc(Cl)cc3)c3nc(-c4ccccc4)c(Cc4ccccc4)s3)c(Cl)c2)c(=O)[nH]1` (racemic) [Comp 249]: the “% inh. (percentage inhibition of IL-5 production)” value stood at 80%.
Next, `O=c1cnn(-c2cc(Cl)c(C(c3ccc(Cl)cc3)c3nc(-c4cccc(Br)c4)cs3)c(Cl)c2)c(=O)[nH]1` (racemic) [Comp 250]: 84%; `CCc1sc(C(C)(c2ccc(Cl)c(Cl)c2)c2c(Cl)cc(-n3ncc(=O)[nH]c3=O)cc2Cl)nc1-c1ccccc1` (racemic) [Comp 251]: 90%; `O=c1cnn(-c2cc(Cl)c(C(c3ccc(Cl)cc3)c3nc(-c4cccc(Cl)c4Cl)cs3)c(Cl)c2)c(=O)[nH]1` (racemic) [Comp 252]: 80%.
Next, `CN(C)Cc1sc(C(c2ccc(Cl)cc2)c2c(Cl)cc(-n3ncc(=O)[nH]c3=O)cc2Cl)nc1-c1ccccc1` (racemic) [Comp 253]: 96%; `O=c1cnn(-c2cc(Cl)c(C(c3ccc(Cl)c(C(F)(F)F)c3)c3nc(-c4ccccc4Cl)cs3)c(Cl)c2)c(=O)[nH]1` (racemic) [Comp 254]: 86%.
Under `COc1cc(-n2ncc(=O)[nH]c2=O)ccc1C(C)(c1ccc(Cl)c(C(F)(F)F)c1)c1nc(-c2ccccc2)cs1` (racemic) [Comp 255] stands 67%; under `CCOC(=O)Cc1sc(C(c2ccc(Cl)cc2)c2c(Cl)cc(-n3ncc(=O)[nH]c3=O)cc2Cl)nc1-c1ccccc1` (racemic) [Comp 256], 94%.
Take `O=c1cnn(-c2cc(Cl)c(C(c3ccc(Cl)cc3)c3nc(-c4cc(Cl)ccc4Cl)cs3)c(Cl)c2)c(=O)[nH]1` (racemic) [Comp 257]: the “% inh. (percentage inhibition of IL-5 production)” value is 82%.
As to `Cc1sc(C(c2ccc(Cl)cc2)c2c(Cl)cc(-n3ncc(=O)[nH]c3=O)cc2Cl)nc1-c1cccc(F)c1` (racemic) [Comp 258], the “% inh. (percentage inhibition of IL-5 production)” value is 98%.
Under `Cc1sc(C(c2ccc(Cl)cc2)c2c(Cl)cc(-n3ncc(=O)[nH]c3=O)cc2Cl)nc1-c1ccccc1F` (racemic) [Comp 259] stands 95%; under `CCc1sc(C(c2ccc(Cl)cc2)c2c(Cl)cc(-n3ncc(=O)[nH]c3=O)cc2Cl)nc1-c1cccc(F)c1` (racemic) [Comp 260], 98%.
Under `CCc1sc(C(c2ccc(Cl)cc2)c2c(Cl)cc(-n3ncc(=O)[nH]c3=O)cc2Cl)nc1-c1ccccc1F` (racemic) [Comp 261] stands 93%; under `COc1ccccc1-c1csc(C(c2ccc(Cl)cc2)c2c(Cl)cc(-n3ncc(=O)[nH]c3=O)cc2Cl)n1` (racemic) [Comp 263], 92%.
Under `O=c1cnn(-c2cc(Cl)c(C(c3ccc(Cl)cc3)c3nc(-c4c(Cl)cccc4Cl)cs3)c(Cl)c2)c(=O)[nH]1` (racemic) [Comp 264] stands 79%.
Turning to `CN(C)CCNC(c1ccc(Cl)cc1)(c1nc(-c2ccccc2)c(Cl)s1)c1ccc(-n2ncc(=O)[nH]c2=O)cc1Cl` (racemic) [Comp 266], the “% inh. (percentage inhibition of IL-5 production)” value is 46%.
Under `O=c1cnn(-c2cc(Cl)c(C(c3ccc(Cl)cc3)c3ncc(-c4ccccc4)s3)c(Cl)c2)c(=O)[nH]1` (racemic) [Comp 267] stands 81%; under `Cc1sc(C(c2ccc(Cl)cc2)c2c(Cl)cc(-n3ncc(=O)[nH]c3=O)cc2Cl)nc1-c1c(F)cccc1F` (racemic) [Comp 268], 83%.
For the compound `Cc1cc(C(c2nc(-c3ccccc3)cs2)c2c(Cl)cc(-n3ncc(=O)[nH]c3=O)cc2Cl)ccc1Cl` (racemic) [Comp 269], the “% inh. (percentage inhibition of IL-5 production)” value is reported as 90%.
Next, `Cc1cc(-n2ncc(=O)[nH]c2=O)cc(C)c1C(c1ccc(Cl)c(Cl)c1)c1nc(-c2ccccc2)cs1` (racemic) [Comp 270]: 86%; `Cc1cc(-n2ncc(=O)[nH]c2=O)cc(C)c1C(c1ccc(Cl)c(Cl)c1)c1nc(-c2ccccc2)c(C)s1` (racemic) [Comp 271]: 88%.
Next, `Cc1sc(C(c2ccc(Cl)cc2)c2c(Cl)cc(-n3ncc(=O)[nH]c3=O)cc2Cl)nc1-c1ccccc1Cl` (racemic) [Comp 272]: 87%; `O=C(c1ccccc1)c1sc(C(c2ccc(Cl)cc2)c2c(Cl)cc(-n3ncc(=O)[nH]c3=O)cc2Cl)nc1-c1ccccc1` (racemic) [Comp 273]: 77%.
On to `CCOC(=O)c1sc(C(c2ccc(Cl)cc2)c2c(Cl)cc(-n3ncc(=O)[nH]c3=O)cc2Cl)nc1-c1ccccc1Cl` (racemic) [Comp 274], for which the “% inh. (percentage inhibition of IL-5 production)” value came to 89%.
Next, `CN(C)C(=O)Cc1sc(C(c2ccc(Cl)cc2)c2c(Cl)cc(-n3ncc(=O)[nH]c3=O)cc2Cl)nc1-c1ccccc1` (racemic) [Comp 275]: 94%; `O=C(Cc1sc(C(c2ccc(Cl)cc2)c2c(Cl)cc(-n3ncc(=O)[nH]c3=O)cc2Cl)nc1-c1ccccc1)N1CCOCC1` (racemic) [Comp 276]: 91%.
`COCc1sc(C(c2ccc(Cl)cc2)c2c(Cl)cc(-n3ncc(=O)[nH]c3=O)cc2Cl)nc1-c1ccccc1` (racemic) [Comp 278]: the “% inh. (percentage inhibition of IL-5 production)” value was determined as 97%.
On to `CN(C)CCc1sc(C(c2ccc(Cl)cc2)c2c(Cl)cc(-n3ncc(=O)[nH]c3=O)cc2Cl)nc1-c1ccccc1` (racemic) [Comp 279], for which the “% inh. (percentage inhibition of IL-5 production)” value amounted to 92%.
On to `CN(C)Cc1sc(C(c2ccc(Cl)cc2)c2c(Cl)cc(-n3ncc(=O)[nH]c3=O)cc2Cl)nc1-c1cccc(F)c1` (racemic) [Comp 280], for which the “% inh. (percentage inhibition of IL-5 production)” value was determined as 96%.
Under `CN(C)C(=O)CCc1sc(C(c2ccc(Cl)cc2)c2c(Cl)cc(-n3ncc(=O)[nH]c3=O)cc2Cl)nc1-c1ccccc1` (racemic) [Comp 281] stands 91%.
Under `O=c1cnn(-c2cc(Cl)c(C(c3ccc(Cl)cc3)c3nc(-c4ccccc4)c(CO)s3)c(Cl)c2)c(=O)[nH]1` (racemic) [Comp 282] stands 93%; under `CN1CCC(C(=O)Cc2sc(C(c3ccc(Cl)cc3)c3c(Cl)cc(-n4ncc(=O)[nH]c4=O)cc3Cl)nc2-c2ccccc2)CC1` (racemic) [Comp 283], 93%; under `O=c1cnn(-c2cc(Cl)c(C(c3ccc(Cl)cc3)c3nc(-c4ccccc4)c(C4CCCCC4)s3)c(Cl)c2)c(=O)[nH]1` (racemic) [Comp 284], 91%.
Turning to `CCOC(=O)c1sc(C(c2ccc(Cl)cc2)c2c(Cl)cc(-n3ncc(=O)[nH]c3=O)cc2Cl)nc1-c1ccccc1F` (racemic) [Comp 285], the “% inh. (percentage inhibition of IL-5 production)” value is reported as 89%.
Next, `O=c1cnn(-c2cc(Cl)c(C(c3ccc(Cl)cc3)c3nc(-c4cc(F)cc(F)c4)cs3)c(Cl)c2)c(=O)[nH]1` (racemic) [Comp 286]: 86%.
Under `Cc1sc(C(c2ccc(Cl)cc2)c2c(Cl)cc(-n3ncc(=O)[nH]c3=O)cc2Cl)nc1-c1cccc(F)c1` (racemic) [Comp 287] stands 94%; under `CC(c1ccc(Cl)c(F)c1)(c1nc(-c2ccccc2)cs1)c1c(Cl)cc(-n2ncc(=O)[nH]c2=O)cc1Cl` (racemic) [Comp 288], 90%; under `COc1cc(C(c2nc(-c3ccccc3)cs2)c2c(Cl)cc(-n3ncc(=O)[nH]c3=O)cc2Cl)ccc1Cl` (racemic) [Comp 289], 96%.
Under `O=c1cnn(-c2cc(Cl)c(C(c3ccc(Cl)cc3)c3nc(-c4cc(F)ccc4F)cs3)c(Cl)c2)c(=O)[nH]1` (racemic) [Comp 290] stands 92%.
Take `O=c1cnn(-c2cc(Cl)c(C(c3ccc(Cl)cc3)c3nc(-c4ccccc4)c(CN4CCOCC4)s3)c(Cl)c2)c(=O)[nH]1` (racemic) [Comp 292]: the “% inh. (percentage inhibition of IL-5 production)” value turned out to be 94%.
Under `CCOC(=O)Cc1sc(C(c2ccc(Cl)cc2)c2c(Cl)cc(-n3ncc(=O)[nH]c3=O)cc2Cl)nc1-c1ccccc1Cl` (racemic) [Comp 293] stands 59%.
Next, `O=c1cnn(-c2cc(Cl)c(C(c3ccc(Cl)cc3)c3nc(-c4ccc(Br)cc4)cs3)c(Cl)c2)c(=O)[nH]1` (racemic) [Comp 294]: 85%.
Next, `CCOCc1sc(C(c2ccc(Cl)cc2)c2c(Cl)cc(-n3ncc(=O)[nH]c3=O)cc2Cl)nc1-c1ccccc1` (racemic) [Comp 295]: 90%; `CNCc1sc(C(c2ccc(Cl)cc2)c2c(Cl)cc(-n3ncc(=O)[nH]c3=O)cc2Cl)nc1-c1ccccc1.Cl.O.O.O` (racemic) [Comp 296]: 92%; `CN(Cc1ccccc1)Cc1sc(C(c2ccc(Cl)cc2)c2c(Cl)cc(-n3ncc(=O)[nH]c3=O)cc2Cl)nc1-c1ccccc1` (racemic) [Comp 297]: 90%.

(Values after patent publication US6867207B2, “IL-5 inhibiting 6-azauracil derivatives” (Janssen Pharmaceutica N.V., priority 1997, dated 2005).)
